# From patent publication US8074906B2, “Process for milling and preparing powders and compositions produced thereby” (Nanotherapeutics, Inc., priority 2005, dated 2011)
# How the values were obtained:
# [1] = particle size by Coulter DELSA 440; format: physicochemical
# Text: Oxcarbazepine, an antiepileptic drug marketed as Trileptal® by Novartis, is a white crystalline powder practically insoluble in water. Oxcarbazepine (100%) was milled in 1 kg batches according to the method described in EXAMPLE 1.
# […]
# [2] = moisture uptake (weight change) at room temperature and humidity; format: physicochemical; details: lyophilized simple salt, 24 hours
# Experimental: Initial Zn-DTPA simple salt solutions were prepared and lyophilized, producing a hygroscopic mixture not stable at room temperature and humidity (>10% moisture uptake in 24 hours). Zn-DTPA (trisodium zinc diethylenetriaminepentaacetate) were then mixed with (1) hydroxyl-propyl-methylcellulose (HPMC, K100M, Dow), (2) lactose (USP, Hawkins), and (3) silica dioxide (Sipernat 50S, Degussa) and dried using lyophilization. Preparation procedures include (A) mixing ingredients (75 and 90% Zn-DTPA, 1 g total each) into 10 ml DI water and adjusting pH with NaOH, (B) freezing at −20 C, (C) lyophilizing overnight (shelves at room temp), and (D) measuring the moisture uptake (weight change) at room temperature (20-25° C.) and humidity (40-55%) at 1 month.
# [3] = in vivo pharmacokinetics of taurine formulations in rats; details: rat, oral, read-out: bioavailability (BA)
structure (smiles),measurement,setting,value
NC(=O)N1c2ccccc2CC(=O)c2ccccc21 [Oxcarbazepine],particle size,[1]; Pass 1,2250 nm
same,particle size,[1]; Pass 2,524 nm
same,particle size,[1]; Pass 3,400 nm
same,particle size,[1]; Pass 4,264 nm
"O=C([O-])CN(CCN(CC(=O)[O-])CC(=O)[O-])CCN(CC(=O)[O-])CC(=O)[O-].[Na+].[Na+].[Na+].[Zn+2] [Zn-DTPA, trisodium zinc diethylenetriaminepentaacetate]",moisture uptake,[2],> 10%
"NCCS(=O)(=O)O [unformulated taurine, Taurine]",bioavailability,[3],18%
